From ChEMBL document CHEMBL4665869, “New thiazolopyrimidine as anticancer agents: Synthesis, biological evaluation, DNA binding, molecular modeling and ADMET study” (Bioorg Med Chem Lett, 2020)
≈ marks a conversion by molar mass, not a printed value. Calls of active or inactive are those of the source. No cut-off for these calls is given here.

Key:
LOX IMVI = test: Growth inhibition of human LOX IMVI cells at 10 uM relative to control; assay type: functional
MDA-MB-468 = test: Growth inhibition of human MDA-MB-468 cells at 10 uM relative to control; assay type: functional
T47D = test: Growth inhibition of human T47D cells at 10 uM relative to control; assay type: functional; conditions: read-out: GI
CCRF-CEM = test: Growth inhibition of human CCRF-CEM cells at 10 uM relative to control; assay type: functional
K562 = test: Growth inhibition of human K562 cells at 10 uM relative to control; assay type: functional; conditions: read-out: GI
MOLT-4 = test: Growth inhibition of human MOLT-4 cells at 10 uM relative to control; assay type: functional
RPMI-8226 = test: Growth inhibition of human RPMI-8226 cells at 10 uM relative to control; assay type: functional
A549 = test: Growth inhibition of human A549 cells at 10 uM relative to control; assay type: functional
HOP-62 = test: Growth inhibition of human HOP-62 cells at 10 uM relative to control; assay type: functional
NCI-H23 = test: Growth inhibition of human NCI-H23 cells at 10 uM relative to control; assay type: functional
NCI-H322M = test: Growth inhibition of human NCI-H322M cells at 10 uM relative to control; assay type: functional; conditions: read-out: GI
NCI-H460 = test: Growth inhibition of human NCI-H460 cells at 10 uM relative to control; assay type: functional
NCI-H522 = test: Growth inhibition of human NCI-H522 cells at 10 uM relative to control; assay type: functional
SW-620 = test: Growth inhibition of human SW-620 cells at 10 uM relative to control; assay type: functional
COLO 205 = test: Growth inhibition of human COLO 205 cells at 10 uM relative to control; assay type: functional
HCC 2998 = test: Growth inhibition of human HCC 2998 cells at 10 uM relative to control; assay type: functional
HCT-116 = test: Growth inhibition of human HCT-116 cells at 10 uM relative to control; assay type: functional
HT-29 = test: Growth inhibition of human HT-29 cells at 10 uM relative to control; assay type: functional
KM12 = test: Growth inhibition of human KM12 cells at 10 uM relative to control; assay type: functional
SF-268 = test: Growth inhibition of human SF-268 cells at 10 uM relative to control; assay type: functional
SF-295 = test: Growth inhibition of human SF-295 cells at 10 uM relative to control; assay type: functional
SF-539 = test: Growth inhibition of human SF-539 cells at 10 uM relative to control; assay type: functional
SNB-19 = test: Growth inhibition of human SNB-19 cells at 10 uM relative to control; assay type: functional; conditions: read-out: GI
SNB-75 = test: Growth inhibition of human SNB-75 cells at 10 uM relative to control; assay type: functional; conditions: read-out: GI
U-251 = test: Growth inhibition of human U-251 cells at 10 uM relative to control; assay type: functional
Malme-3M = test: Growth inhibition of human Malme-3M cells at 10 uM relative to control; assay type: functional
M14 = test: Growth inhibition of human M14 cells at 10 uM relative to control; assay type: functional
MDA-MB-435 = test: Growth inhibition of human MDA-MB-435 cells at 10 uM relative to control; assay type: functional
SK-MEL-2 = test: Growth inhibition of human SK-MEL-2 cells at 10 uM relative to control; assay type: functional
SK-MEL-28 = test: Growth inhibition of human SK-MEL-28 cells at 10 uM relative to control; assay type: functional
SK-MEL-5 = test: Growth inhibition of human SK-MEL-5 cells at 10 uM relative to control; assay type: functional
UACC-257 = test: Growth inhibition of human UACC-257 cells at 10 uM relative to control; assay type: functional
OVCAR-4 = test: Growth inhibition of human OVCAR-4 cells at 10 uM relative to control; assay type: functional; conditions: read-out: GI
OVCAR-5 = test: Growth inhibition of human OVCAR-5 cells at 10 uM relative to control; assay type: functional
NCI/ADR-RES = test: Growth inhibition of human NCI/ADR-RES cells at 10 uM relative to control; assay type: functional; conditions: read-out: GI
SK-OV-3 = test: Growth inhibition of human SK-OV-3 cells at 10 uM relative to control; assay type: functional
A498 = test: Growth inhibition of human A498 cells at 10 uM relative to control; assay type: functional
ACHN = test: Growth inhibition of human ACHN cells at 10 uM relative to control; assay type: functional
CAKI-1 = test: Growth inhibition of human CAKI-1 cells at 10 uM relative to control; assay type: functional
RXF 393 = test: Growth inhibition of human RXF 393 cells at 10 uM relative to control; assay type: functional
SN12C = test: Growth inhibition of human SN12C cells at 10 uM relative to control; assay type: functional
UO-31 = test: Growth inhibition of human UO-31 cells at 10 uM relative to control; assay type: functional
PC-3 = test: Growth inhibition of human PC-3 cells at 10 uM relative to control; assay type: functional
DU-145 = test: Growth inhibition of human DU-145 cells at 10 uM relative to control; assay type: functional
MCF7 = test: Growth inhibition of human MCF7 cells at 10 uM relative to control; assay type: functional
MDA-MB-231 = test: Growth inhibition of human MDA-MB-231 cells at 10 uM relative to control; assay type: functional
Hs-578T = test: Growth inhibition of human Hs-578T cells at 10 uM relative to control; assay type: functional; conditions: read-out: GI
Leukemia cell = test: Growth inhibition of human leukemia cancer cells; assay type: functional
[1] = Growth inhibition of human Non-small cell lung cancer cells; assay type: functional; conditions: Non-small cell lung cancer cell line
[2] = Growth inhibition of human colon cancer cells; assay type: functional; conditions: Colon cancer cell line
[3] = Growth inhibition of human CNS cancer cells; assay type: functional; conditions: CNS cell
[4] = Growth inhibition of human ovarian cancer cells; assay type: functional; conditions: Ovarian cancer cell line
[5] = Growth inhibition of human renal cancer cells; assay type: functional; conditions: Renal cancer cell line
[6] = Growth inhibition of human breast cancer cells; assay type: functional; conditions: Breast cancer cell line
DNA = test: Displacement of methyl green from DNA (unknown origin) assessed as DNA intercalation after 24 hrs by colorimetric assay; assay type: nucleic-acid assay
[7] = read-out: LC50 (the source's name)

COc1cc(/C=C/C2=CC(c3cc(OC)c(OC)c(OC)c3)N3C=C(C)SC3=N2)cc(OC)c1OC (centres undefined)
growth inhibition (GI) (LOX IMVI): Active | growth inhibition (GI) (MDA-MB-468): Active | inhibition of growth at 10 µM (T47D): 92% | growth inhibition (GI) (CCRF-CEM): Active | inhibition of growth at 10 µM (K562): 97.8% | growth inhibition (GI) (MOLT-4): Active | growth inhibition (GI) (RPMI-8226): Active | growth inhibition (GI) (A549): Active | growth inhibition (GI) (HOP-62): Active | growth inhibition (GI) (NCI-H23): Active | inhibition of growth at 10 µM (NCI-H322M): 86.4% | growth inhibition (GI) (NCI-H460): Active | growth inhibition (GI) (NCI-H522): Active | growth inhibition (GI) (SW-620): Active | growth inhibition (GI) (COLO 205): Active | growth inhibition (GI) (HCC 2998): Active | growth inhibition (GI) (HCT-116): Active | growth inhibition (GI) (HT-29): Active | growth inhibition (GI) (KM12): Active | growth inhibition (GI) (SF-268): Active | growth inhibition (GI) (SF-295): Active | growth inhibition (GI) (SF-539): Active | inhibition of growth at 10 µM (SNB-19): 66.5% | inhibition of growth at 10 µM (SNB-75): 75.6% | growth inhibition (GI) (U-251): Active | growth inhibition (GI) (Malme-3M): Active | growth inhibition (GI) (M14): Active | growth inhibition (GI) (MDA-MB-435): Active | growth inhibition (GI) (SK-MEL-2): Active | growth inhibition (GI) (SK-MEL-28): Active | growth inhibition (GI) (SK-MEL-5): Active | growth inhibition (GI) (UACC-257): Active | inhibition of growth at 10 µM (OVCAR-4): 88.4% | growth inhibition (GI) (OVCAR-5): Active | inhibition of growth at 10 µM (NCI/ADR-RES): 80.6% | growth inhibition (GI) (SK-OV-3): Active | growth inhibition (GI) (A498): Active | growth inhibition (GI) (ACHN): Active | growth inhibition (GI) (CAKI-1): Active | growth inhibition (GI) (RXF 393): Active | growth inhibition (GI) (SN12C): Active | growth inhibition (GI) (UO-31): Active | growth inhibition (GI) (PC-3): Active | growth inhibition (GI) (DU-145): Active | growth inhibition (GI) (MCF7): Active | growth inhibition (GI) (MDA-MB-231): Active | inhibition of growth at 10 µM (Hs-578T): 98% | GI50 (Leukemia cell): 0.43 µM | TGI (Leukemia cell): 61.9 µM | CC50 (Leukemia cell; [7]): > 100 µM | GI50 [1]: 1.94 µM | TGI [1]: 4.81 µM | CC50 [1, 7]: 62.9 µM | GI50 [2]: 0.92 µM | TGI [2]: 3.62 µM | CC50 [2, 7]: 36 µM | GI50 [3]: 1.85 µM | TGI [3]: 10.2 µM | CC50 [3, 7]: 54.2 µM | GI50 [4]: 1.75 µM | TGI [4]: 33.9 µM | CC50 [4, 7]: 76.5 µM | GI50 [5]: 1.49 µM | TGI [5]: 4.38 µM | CC50 [5, 7]: 54.7 µM | GI50 [6]: 1.39 µM | TGI [6]: 17.9 µM | CC50 [6, 7]: 68.7 µM | IC50 (DNA): 36.13 µg/mL (≈ 70.8 µM)
